# Source: the NIST ThermoML archive (doi:10.1021/je900977e)
# Where “and” joins values, the source holds several entries; their conditions need not be identical. Equal values may be shown once. ± gives the expanded uncertainty stated by the source.
# Details: 313.15 K; Liquid; Closed cell (Static) method
row,SMILES,vapor or sublimation pressure
1,CC(C)O [propan-2-ol],13.9 ± 0.06 kPa and 13.89 ± 0.06 kPa
2,CC(C)OC(C)C [diisopropyl ether],37.11 ± 0.14 kPa and 37.13 ± 0.14 kPa
3,c1ccccc1 [benzene],24.4 ± 0.094 kPa and 24.38 ± 0.094 kPa
